Experimental data taken from patent US8889629B2, “Use of a cyclic undecapeptide for the preparation of a medicament for administration during myocardial ischaemic events” (Debiopharm International SA, priority 2005, dated 2014).

Key:
[1] = tested on: myocardial infarction (ischemia-reperfusion); assay: Model of ischemia-reperfusion in the rabbit, cardioprotective effect (infarction size); format: in vivo
Method: The aim of this study is to test the cardioprotective effect of the cyclic undecapeptide of formula (I), otherwise referred to as [MeAla]^3-[EtVal]^4-CsA, in terms of reduction in the size of the myocardial infarction measured 4 hours after the occurrence of the infarction.
After tracheotomy and ventilation with ambient air, a thoracotomy is performed in the fourth left intercostal space. A marginal branch of the left circumflex coronary artery is ligatured using a 3.0 silk suture thread. During the procedure, the temperature, the heart rate and the blood pressure are controlled. After occlusion for 30 minutes, the ligature is released (reperfusion) and the animals are kept in a controlled atmosphere for 4 hours before euthanasia.
One group of animals receives the pharmaceutical carrier for [MeAla]^3-[EtVal]^4-CsA, another group is treated with [MeAla]^3-[EtVal]^4-CsA intravenously in the form of a single injection respectively of 20 mg/kg, one minute before the ligature is released. Four hours after the reperfusion, the coronary artery is briefly reoccluded and a blue dye is injected intravenously so as to determine the zone at risk. […] The areas of the zones at risk and of the infarcted myocardium or area of necroses are determined by planimetry. The size of the infarction and the size of the zone at risk are calculated and expressed as percentage of left ventricular weight.

[2] = tested on: myocardial infarction (ischemia-reperfusion); assay: Model of ischemia-reperfusion in the mouse, post-infarction period (infarction size, ventricular remodeling, survival); format: in vivo
Method: After anesthesia, the mice are intubated and ventilated with a rodent ventilator. The rectal temperature is controlled and maintained at 38°-39° C. After sternotomy, the anterior interventricular artery is ligatured with an 8-0 polypropylene thread. The ischemia is visualized through the appearance of an elevated ST segment on the ECG (electrocardiogram) and the paleness of the myocardium. After 25 minutes of occlusion, the ligature is released and the reperfusion is verified by visual inspection and disappearance of the upshift in the ST segment. The thoracic wall is closed by suturing and the mice are kept in a controlled-temperature atmosphere.
One group of animals receives the carrier for [MeAla]^3-[EtVal]^4-CsA; another group is treated with [MeAla]^3-[EtVal]^4-CsA by intravenous injection (single injection at 10 mg/kg), 3 minutes before the ligature is released. The animals are monitored for 30 days and the mortality is reported for each group.
Four weeks after the reperfusion, the left ventricular remodeling is studied by Doppler echocardiography and the left ventricular ejection fraction is measured.
The zone at risk and the size of the infarction are determined in a group of animals that have undergone 25 minutes of coronary occlusion followed by 24 hours of reperfusion. After a brief reocclusion of the anterior interventricular artery, a blue dye is injected via the vena cava so as to determine the zone at risk. The animals are anesthetized and the heart is excised. The ventricle is cut into 5 thin slices and photographed. Incubation of these slices in 2,3,5-triphenyltetrazolium for 15 minutes at 37° C. makes it possible to differentiate the live (brick red) and necrosed (pale yellow) zones of the myocardium. The slices are photographed. The areas of the zones at risk and of the infarcted myocardium are determined by planimetry. The size of the infarction and the size of the zone at risk are calculated and expressed as percentage of left ventricular weight.

[3] = tested on: septic shock with myocardial dysfunction; assay: Model of septic shock in the mouse (cecal ligature and puncture), survival; format: in vivo; conditions: 10 mg/kg parenteral injection just after induction of septic shock, 72 hours after induction of the sepsis (FIG. 2)
Method: After the mice had been anesthetized, a peritonitis is induced by cecal ligature and puncture, as follows: a median laparotomy is performed, the cecum is lifted out and a single puncture of said cecum is performed below the ileocecal valve with a 21-gauge needle. The cecum is put back into the abdominal cavity, which is then sutured in 2 planes. After the mice have come round, they are given a parenteral injection of the analgesic nalbuphine.
One group of animals receives physiological saline (control group); another group is treated with [MeAla]^3-[EtVal]^4-CsA at a rate of 10 mg/kg by parenteral injection just after surgical induction of septic shock. The animals are monitored for 4 days and the mortality is reported for each group.

[4] = tested on: human immunodeficiency virus; conditions: cited from earlier work
[5] = compared with cyclosporin A; cited from earlier work
[6] = tested on: MPTP of mitochondria isolated from the brain; conditions: Hansson et al. 2004; cited from earlier work

## [MeAla]^3-[EtVal]^4-CsA
[1]; 20 mg/kg i.v., 4 hours after reperfusion
  decrease in the size of the infarction in the zone at risk compared with pharmaceutical carrier: ~40%
[1]; 30 min occlusion, single i.v. injection 20 mg/kg one minute before ligature release, measured 4 hours after reperfusion
  Infarction size (AN/AR ± SD): 29 ± 6.0%
[2]; mouse, 10 mg/kg i.v. 3 minutes before ligature release, Doppler echocardiography 4 weeks after reperfusion
  Left ventricular ejection fraction ± SD: 77 ± 6%
[2]; mouse, 10 mg/kg i.v. 3 minutes before ligature release, vs carrier (FIG. 1)
  mortality rate at 4 weeks: a decrease in the mortality rate
[2]; mouse, 10 mg/kg i.v., 24 hours after reperfusion, vs carrier (table 2)
  decrease in the size of the infarction in the zone at risk: ~50%
[2]; mouse, 25 min occlusion, single i.v. injection 10 mg/kg 3 minutes before ligature release, 24 hours after reperfusion
  Infarction size (AN/AR ± SD): 32.1 ± 7.3%
[2]; same dose of active compound
  beneficial effects when administration is too early or too late relative to the reperfusion: not obtained
[3]
  survival rate: approximately 60%
[4]
  activity in terms of inhibiting the action of the human immunodeficiency virus: strong activity
[5]
  immunosuppressive properties: not having the well-known immunosuppressive properties
[6]
  neuroprotective potential: inhibition of MPTP: inhibition of MPTP
